A value given as a limit tells only on which side of the number the result lay.

This experiment concerns the target T1, Androgen Receptor (Homo sapiens, UniProt P10275+P40337, T878A).
T1 construct: Compounds have been evaluated in this assay in LNCaP and/or VCaP cells utilizing similar protocols; endogenous in cells; host or cells: LNCaP cells
Kind of experiment: Androgen Receptor ELISA assay (PathScan AR ELISA) in LNCaP cells: AR degradation, Dmax and DC50. In kind it is cell-based. Particulars: for DC50: concentration that caused 50% Androgen Receptor degradation; for Dmax: highest percentage of Androgen Receptor degradation observed. In general terms: ELISA stands for enzyme-linked immunosorbent assay.

T1 sequence (P10275 whole entry T878A): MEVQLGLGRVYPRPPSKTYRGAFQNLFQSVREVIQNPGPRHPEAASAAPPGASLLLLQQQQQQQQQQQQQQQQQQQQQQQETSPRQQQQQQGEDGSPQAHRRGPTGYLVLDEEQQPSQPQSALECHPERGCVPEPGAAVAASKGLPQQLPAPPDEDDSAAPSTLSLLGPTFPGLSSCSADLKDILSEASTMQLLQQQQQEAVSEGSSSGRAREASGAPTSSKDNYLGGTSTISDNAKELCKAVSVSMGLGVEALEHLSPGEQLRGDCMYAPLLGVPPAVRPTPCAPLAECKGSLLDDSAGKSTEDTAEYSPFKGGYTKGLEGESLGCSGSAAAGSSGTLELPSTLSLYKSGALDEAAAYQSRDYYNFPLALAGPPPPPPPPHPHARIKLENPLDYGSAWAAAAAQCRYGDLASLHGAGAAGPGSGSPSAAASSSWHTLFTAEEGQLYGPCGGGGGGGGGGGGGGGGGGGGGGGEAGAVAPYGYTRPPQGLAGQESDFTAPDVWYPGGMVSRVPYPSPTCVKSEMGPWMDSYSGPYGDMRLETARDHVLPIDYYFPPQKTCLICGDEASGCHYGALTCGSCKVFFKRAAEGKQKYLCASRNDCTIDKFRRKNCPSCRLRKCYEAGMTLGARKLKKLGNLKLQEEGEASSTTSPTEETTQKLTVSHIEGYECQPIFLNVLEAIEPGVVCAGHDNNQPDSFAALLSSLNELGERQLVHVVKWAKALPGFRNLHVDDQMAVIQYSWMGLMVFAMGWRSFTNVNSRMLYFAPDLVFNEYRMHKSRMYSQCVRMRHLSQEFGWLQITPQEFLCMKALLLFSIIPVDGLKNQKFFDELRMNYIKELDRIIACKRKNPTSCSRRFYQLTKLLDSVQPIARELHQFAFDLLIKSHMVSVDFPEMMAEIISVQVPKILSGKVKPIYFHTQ
T1 sequence (P40337 whole entry): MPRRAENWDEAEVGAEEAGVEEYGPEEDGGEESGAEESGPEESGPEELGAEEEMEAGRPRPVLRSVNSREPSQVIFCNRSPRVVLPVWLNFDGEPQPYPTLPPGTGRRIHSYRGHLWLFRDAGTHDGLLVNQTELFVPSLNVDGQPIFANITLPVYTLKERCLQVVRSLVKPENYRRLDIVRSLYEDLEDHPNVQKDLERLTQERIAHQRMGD
T1 sequence (Q15369 whole entry partner): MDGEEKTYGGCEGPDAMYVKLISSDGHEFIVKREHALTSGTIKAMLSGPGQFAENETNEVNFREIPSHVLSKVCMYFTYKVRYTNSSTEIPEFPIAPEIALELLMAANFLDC
T1 sequence (Q15370 whole entry partner): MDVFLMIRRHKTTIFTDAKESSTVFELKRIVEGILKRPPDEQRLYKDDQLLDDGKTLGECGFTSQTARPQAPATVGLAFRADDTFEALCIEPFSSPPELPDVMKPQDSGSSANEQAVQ

In the case of `COc1cc(N2C(=O)C(C)(C)N(c3ccc(OCCCCCOCCCOCC(=O)N[C@H](C(=O)N4C[C@H](O)C[C@H]4C(=O)NCc4ccc(-c5scnc5C)cc4)C(C)(C)C)cc3)C2=S)ccc1C#N` [Example 9, (2S,4R)-1-[(2S)-2-(2-{3-[(5-{4-[3-(4-cyano-3-methoxyphenyl)-5,5-dimethyl-4-oxo-2-sulfanylideneimidazolidin-1-yl]phenoxy}pentyl)oxy]propoxy}acetamido)-3,3-dimethylbutanoyl]-4-hydroxy-N-{[4-(4-methyl-1,3-thiazol-5-yl)phenyl]methyl}pyrrolidine-2-carboxamide], the DC50 – broadly, the concentration at which degradation of the target reaches its halfway point – was less than 50 nM and the greatest degradation seen (Dmax) (commonly the greatest extent of degradation seen) was more than 71%.

On to `Cc1ncsc1-c1ccc(CNC(=O)[C@@H]2C[C@@H](O)CN2C(=O)[C@@H](NC(=O)COCCOCCOCCOc2ccc(N3C(=O)N(c4ccc(C#N)c(C(F)(F)F)c4)C(=O)C3(C)C)cc2)C(C)(C)C)cc1` [Example 17, (2S,4R)-1-[(2S)-2-[2-(2-{2-[2-(4-{3-[4-cyano-3-(trifluoromethyl)phenyl]-5,5-dimethyl-2,4-dioxoimidazolidin-1-yl}phenoxy)ethoxy]ethoxy}ethoxy)acetamido]-3,3-dimethylbutanoyl]-4-hydroxy-N-{[4-(4-methyl-1,3-thiazol-5-yl)phenyl]methyl}pyrrolidine-2-carboxamide], for which the DC50 was 51 to 500 nM and the Dmax was in the range of 26 to 50%. In the same order, the values of `Cc1ncsc1-c1ccc(CNC(=O)[C@@H]2C[C@@H](O)CN2C(=O)[C@@H](NC(=O)COCCOCCOCCOc2ccc(N3C(=S)N(c4ccc(C#N)c(C(F)(F)F)c4)C(=O)C3(C)C)cc2F)C(C)(C)C)cc1` [Example 18, (2S,4R)-1-[(2S)-2-[2-(2-{2-[2-(4-{3-[4-cyano-3-(trifluoromethyl)phenyl]-5,5-dimethyl-4-oxo-2-sulfanylideneimidazolidin-1-yl}-2-fluorophenoxy)ethoxy]ethoxy}ethoxy)acetamido]-3,3-dimethylbutanoyl]-4-hydroxy-N-{[4-(4-methyl-1,3-thiazol-5-yl)phenyl]methyl}pyrrolidine-2-carboxamide] are 51 to 500 nM and 51 to 70%.

For the molecule `Cc1ncsc1-c1ccc(CNC(=O)[C@@H]2C[C@@H](O)CN2C(=O)[C@@H](NC(=O)COCCOCCOCCOc2ccc(N3C(=S)N(c4ccc([N+](=O)[O-])c(C(F)(F)F)c4)C(=O)C3(C)C)cc2)C(C)(C)C)cc1` [Example 19, (2S,4R)-1-[(2S)-2-[2-(2-{2-[2-(4-{5,5-dimethyl-3-[4-nitro-3-(trifluoromethyl)phenyl]-4-oxo-2-sulfanylideneimidazolidin-1-yl}phenoxy)ethoxy]ethoxy}ethoxy)acetamido]-3,3-dimethylbutanoyl]-4-hydroxy-N-{[4-(4-methyl-1,3-thiazol-5-yl)phenyl]methyl}pyrrolidine-2-carboxamide], the DC50 is less than 50 nM and the Dmax is 51 to 70%.

`Cc1ncsc1-c1ccc([C@H](C)NC(=O)[C@@H]2C[C@@H](O)CN2C(=O)[C@@H](NC(=O)COCCOCCOCCOc2ccc(N3C(=S)N(c4ccc(C#N)c(C(F)(F)F)c4)C(=O)C3(C)C)cc2)C(C)(C)C)cc1` [Example 20, (2S,4R)-1-[(2S)-2-[2-(2-{2-[2-(4-{3-[4-cyano-3-(trifluoromethyl)phenyl]-5,5-dimethyl-4-oxo-2-sulfanylideneimidazolidin-1-yl}phenoxy)ethoxy]ethoxy}ethoxy)acetamido]-3,3-dimethylbutanoyl]-4-hydroxy-N-[(1S)-1-[4-(4-methyl-1,3-thiazol-5-yl)phenyl]ethyl]pyrrolidine-2-carboxamide] gave a DC50 of 51 to 500 nM and a Dmax of more than 71%. Molecule `Cc1ncsc1-c1ccc(CNC(=O)[C@@H]2C[C@@H](O)CN2C(=O)[C@@H](NC(=O)COCCOCCOCCOc2ccc(N3C(=S)N(c4cnc(C#N)c(C(F)(F)F)c4)C(=O)C3(C)C)cc2)C(C)(C)C)cc1` [Example 21, (2S,4R)-1-[(2S)-2-[2-(2-{2-[2-(4-{3-[6-cyano-5-(trifluoromethyl)pyridin-3-yl]-5,5-dimethyl-4-oxo-2-sulfanylideneimidazolidin-1-yl}phenoxy)ethoxy]ethoxy}ethoxy)acetamido]-3,3-dimethylbutanoyl]-4-hydroxy-N-{[4-(4-methyl-1,3-thiazol-5-yl)phenyl]methyl}pyrrolidine-2-carboxamide] displayed a Dmax of 26 to 50%. `Cc1ncsc1-c1ccc(CNC(=O)[C@@H]2C[C@@H](O)CN2C(=O)[C@@H](NC(=O)COCCO[C@H](C)[C@@H](C)OCCOc2ccc(N3C(=S)N(c4ccc(C#N)c(C(F)(F)F)c4)C(=O)C3(C)C)cc2)C(C)(C)C)cc1` [Example 23, (2S,4R)-1-[(2S)-2-[2-(2-{[(2R,3R)-3-[2-(4-{3-[4-cyano-3-(trifluoromethyl)phenyl]-5,5-dimethyl-4-oxo-2-sulfanylideneimidazolidin-1-yl}phenoxy)ethoxy]butan-2-yl]oxy}ethoxy)acetamido]-3,3-dimethylbutanoyl]-4-hydroxy-N-{[4-(4-methyl-1,3-thiazol-5-yl)phenyl]methyl}pyrrolidine-2-carboxamide] displayed a DC50 of 51 to 500 nM and a Dmax of more than 71%. The molecule `Cc1ncsc1-c1ccc(CNC(=O)[C@@H]2C[C@@H](O)CN2C(=O)[C@@H](NC(=O)COCCCCOCCCCOc2ccc(N3C(=S)N(c4ccc(C#N)c(C(F)(F)F)c4)C(=O)C3(C)C)cc2)C(C)(C)C)cc1` [Example 24, (2S,4R)-1-[(2S)-2-(2-{4-[4-(4-{3-[4-cyano-3-(trifluoromethyl)phenyl]-5,5-dimethyl-4-oxo-2-sulfanylideneimidazolidin-1-yl}phenoxy)butoxy]butoxy}acetamido)-3,3-dimethylbutanoyl]-4-hydroxy-N-{[4-(4-methyl-1,3-thiazol-5-yl)phenyl]methyl}pyrrolidine-2-carboxamide] registered a DC50 of less than 50 nM and a Dmax of more than 71%. Taken in the same sequence, the figures for `Cc1ncsc1-c1ccc(CNC(=O)[C@@H]2C[C@@H](O)CN2C(=O)[C@@H](NC(=O)COCCOCCNC(=O)CCCc2ccc(N3C(=S)N(c4ccc(C#N)c(C(F)(F)F)c4)C(=O)C3(C)C)cc2)C(C)(C)C)cc1` [Example 62, (2S,4R)-1-((S)-2-tert-butyl-16-(4-(3-(4-cyano-3-(trifluoromethyl)phenyl)-5,5-dimethyl-4-oxo-2-thioxoimidazolidin-1-yl)phenyl)-4,13-dioxo-6,9-dioxa-3,12-diazahexadecane)-4-hydroxy-N-(4-(4-methylthiazol-5-yl)benzyl)pyrrolidine-2-carboxamide] were more than 501 nM and 51 to 70%. Taken in the same sequence, the figures for `Cc1ncsc1-c1ccc(CNC(=O)[C@@H]2C[C@@H](O)CN2C(=O)[C@@H](NC(=O)COCCOCCN(C)C(=O)CCCc2ccc(N3C(=S)N(c4ccc(C#N)c(C(F)(F)F)c4)C(=O)C3(C)C)cc2)C(C)(C)C)cc1` [Example 64, (2S,4R)-1-[(2S)-2-[2-(2-{2-[4-(4-{3-[4-cyano-3-(trifluoromethyl)phenyl]-5,5-dimethyl-4-oxo-2-sulfanylideneimidazolidin-1-yl}phenyl)-N-methylbutanamido]ethoxy}ethoxy)acetamido]-3,3-dimethylbutanoyl]-4-hydroxy-N-{[4-(4-methyl-1,3-thiazol-5-yl)phenyl]methyl}pyrrolidine-2-carboxamide] were 51 to 500 nM and 51 to 70%.

For `Cc1ncsc1-c1ccc(CNC(=O)[C@@H]2C[C@@H](O)CN2C(=O)[C@@H](NC(=O)CCOCCOCCOc2ccc(-c3ccc(N4C(=S)N(c5ccc(C#N)c(C(F)(F)F)c5)C(=O)C4(C)C)cc3)cc2)C(C)(C)C)cc1` [Example 68, (2S,4R)-1-[(2S)-2-[3-(2-{2-[4-(4-{3-[4-cyano-3-(trifluoromethyl)phenyl]-5,5-dimethyl-4-oxo-2-sulfanylideneimidazolidin-1-yl}phenyl)phenoxy]ethoxy}ethoxy)propanamido]-3,3-dimethylbutanoyl]-4-hydroxy-N-{[4-(4-methyl-1,3-thiazol-5-yl)phenyl]methyl}pyrrolidine-2-carboxamide], the DC50 was in the range of 51 to 500 nM and the Dmax is 26 to 50%. In the same order, the values of `Cc1ncsc1-c1ccc(CNC(=O)[C@@H]2C[C@@H](O)CN2C(=O)[C@@H](NC(=O)CCOCCCCCOc2ccc(-c3ccc(N4C(=S)N(c5ccc(C#N)c(C(F)(F)F)c5)C(=O)C4(C)C)cc3)cc2)C(C)(C)C)cc1` [Example 72, (2S,4R)-1-[(2S)-2-[3-({5-[4-(4-{3-[4-cyano-3-(trifluoromethyl)phenyl]-5,5-dimethyl-4-oxo-2-sulfanylideneimidazolidin-1-yl}phenyl)phenoxy]pentyl}oxy)propanamido]-3,3-dimethylbutanoyl]-4-hydroxy-N-{[4-(4-methyl-1,3-thiazol-5-yl)phenyl]methyl}pyrrolidine-2-carboxamide] are 51 to 500 nM and more than 71%. In the same order, the values of `Cc1ncsc1-c1ccc(CNC(=O)[C@@H]2C[C@@H](O)CN2C(=O)[C@@H](NC(=O)OCCOCCOc2ccc(-c3ccc(N4C(=S)N(c5ccc(C#N)c(C(F)(F)F)c5)C(=O)C4(C)C)cc3F)cc2)C(C)(C)C)cc1` [Example 76, 2-{2-[4-(4-{3-[4-cyano-3-(trifluoromethyl)phenyl]-5,5-dimethyl-4-oxo-2-sulfanylideneimidazolidin-1-yl}-2-fluorophenyl)phenoxy]ethoxy}ethyl N-[(2S)-1-[(2S,4R )-4-hydroxy-2-({[4-(4-methy1-1,3-thiazol-5-yl)phenyl]methyl}carbamoyl)pyrrolidin-l-yl]-3,3-dimethyl-1-oxobutan-2-yl]carhamate] are less than 50 nM and 51 to 70%. Take `Cc1ncsc1-c1ccc(CNC(=O)[C@@H]2C[C@@H](O)CN2C(=O)[C@H](C(C)C)N2Cc3ccccc3C2=O)c(OCCOCCOCCOc2ccc(N3C(=S)N(c4ccc(C#N)c(C(F)(F)F)c4)C(=O)C3(C)C)cc2)c1` [Example 82, (2S,4R)—N-(2-(2-(2-(2-(4-(3-(4-cyano-3-(trifluoromethyl)phenyl)-5,5-dimethyl-4-oxo-2-thioxoimidazolidin-1-yl)phenoxy)ethoxy)ethoxy)ethoxy)-4-(4-methylthiazol-5-yl)benzyl)-4-hydroxy-1-((S)-3-methyl-2-(1-oxoisoindolin-2-yl)butanoyl)pyrrolidine-2-carboxamide]: the DC50 was 51 to 500 nM and the greatest degradation seen (Dmax) was in the range of 51 to 70%.

The values above are taken from US11427548B2 (Arvinas Operations, Inc., priority 2015, dated 2022).
